“And” between values parts separate entries of the source, which are not always exact repeats. Equal entries are not always repeated. Values belong to the compound of their own block, whether it stands above or below them.
System: 883617-216-R-J1-PDC complex spheroids, growth, % test/control
Experiment: Anticancer human tumor 883617-216-R-J1-PDC patient-derived bladder carcinoma cell line growth inhibition [AhR]
Conditions: for viability, T/C: stronger effect = lower value
From the text: Multicellular complex tumor spheroid response to aryl hydrocarbon receptor antagonists in combination with a variety of drugs and investigational agents in selected tumor cell lines
The current study was undertaken to assess response to aryl hydrocarbon receptor antagonists in combination with standard-of-care drugs and investigational agents in solid tumor complex spheroid models. Complex spheroids include a stromal component modeled by human endothelial cells (HUVEC) and fibroblasts modeled by human mesenchymal stem cells (MSCs). The concentration ranges selected for each drug and investigational agent were based upon clinically achievable concentrations if the clinical Cmax of the agent was known.
Compounds. The drugs and investigational agents: BAY 2416964 (NSC825713), GNF351 (NSC835774), CH-223191 (NSC835775), CPI-455 (NSC825282), aza-TdCyd (NSC777586), decitabine (NSC127716), belinostat (NSC758774), entinostat (NSC756642), pevonedistat (NSC761192), tazemetostat (NSC777109), talazoparib (NSC765396), olaparib (NSC753686), selinexor (NSC780203), nedisertib (M3814, NSC802822), bortezomib (NSC756655), venetoclax (NSC766270), doxorubicin (NSC123127), elimusertib (BAY189344, NSC800525), ceralasertib (AZD6738, NSC777638), TAK-243 (NSC785004), alisertib (NSC759677), etoposide (NSC141540), topotecan (NSC609699), eribulin (NSC707389), gemcitabine (NSC613327), carboplatin (NSC241240), cisplatin (NSC119875), and SN-38 (NSC673596) were obtained from the National Cancer Institute (NCI) Developmental Therapeutics Program Chemical Repository (32). The FDA-approved anticancer drug set is available from the Developmental Therapeutics Program at https://dtp.cancer.gov/organization/dscb/obtaining/available plates.htm. […] The stock solutions were prepared in dimethyl sulfoxide (DMSO, Sigma-Aldrich, St. Louis, MO, cat. D2650), except for the platinum compounds which were prepared in saline (Quality Biological, Gaithersburg, MD, cat. 114-055-101), at 800-fold the tested concentration and stored at -70 degrees C prior to their use. All drugs and investigational agents were tested over a range starting from a high concentration at or near the clinical Cmax and decreasing in half-log increments. If the clinical Cmax for an agent had not been determined, the highest concentration tested was 10 microM (Table 1).
Cell Culture. All cells were maintained in an incubator at 37 degrees C and 5% CO2 with 95% humidity. The PDC lines were cultured according to standard operating procedures established by the NCI PDMR (https://pdmr.cancer.gov). Briefly, all PDCs were thawed and cultured in Matrigel-coated flasks prepared with a working solution of 1X Ham's F-12 nutrient mix, without supplementation (Invitrogen, Waltham, MA, cat. 11765054), 100 U/mL penicillin-streptomycin (Invitrogen, cat. 15140122), and 2.5% Matrigel (Corning Inc., Corning, NY, cat. 354248) for the first three passages. All PDCs were cultured in complete DMEM/F-12 media containing advanced DMEM/F-12 (Invitrogen, cat. 12634028), 4.9% defined fetal bovine serum, heat inactivated (HyClone Laboratories Inc., Logan, UT, cat. SH30070.03HI), 389 ng/mL hydrocortisone (Sigma-Aldrich, cat. H4001), 9.7 ng/mL human EGF recombinant protein (Invitrogen, cat. PHG0313), 23.4 microg/mL adenine (Sigma-Aldrich, cat. A2786), 97.3 U/mL penicillin-streptomycin (Invitrogen, cat. 15140122), 1.9 mM L-glutamine (Invitrogen, cat. 25030081), and 9.7 microM Y-27632 dihydrochloride (Tocris Bioscience, Bristol, United Kingdom, cat. 1254). The PDCs were cultured in complete DMEM/F12 media without 10 microM Y-27632 dihydrochloride for at least two passages prior to the screen. The established cell lines NCI-H1341 and […] were cultured in DMEM/F-12, HEPES (Invitrogen, cat. 11330032), 5% defined fetal bovine serum (HyClone Laboratories Inc., cat. SH30070.03), ITS premix universal culture supplement [insulin (5 microg/mL), transferrin (5 microg/mL), and selenious acid (5 ng/mL)] […]

[1] = curve of first compound, second compound 0.1 µM
[2] = curve of first compound, second compound 0.316 µM
[3] = curve of first compound, second compound 1 µM
[4] = curve of first compound, second compound 3.16 µM
[5] = curve of first compound, second compound 10 µM
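Further: exposure lasted 7 days after dosing on day 3 of spheroid growth.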

Structure (SMILES): CC1COCCN1c1cc(-c2ccnn2C)c2ccnc(-c3ccn[nH]3)c2n1 (configuration not stated)
viability, T/C (compound 0.00316 µM): 104% and 105% and 107%
viability, T/C (compound 0.01 µM): 97.6% and 103% and 86.6%
viability, T/C (compound 0.0316 µM): 100% and 93.5% and 68%
viability, T/C (compound 0.1 µM): 72.3% and 75.9% and 62.1%
viability, T/C (compound 0.316 µM): 65.9% and 55.5% and 80.2%
viability, T/C (compound 1 µM): 51% and 51.4% and 54.9%
IC50 (curve of compound): > 1000 nM

Structure (SMILES): CCN(c1cc(-c2ccc(CN3CCOCC3)cc2)cc(C(=O)NCc2c(C)cc(C)[nH]c2=O)c1C)C1CCOCC1 + Cc1ccccc1N=Nc1ccc(NC(=O)c2ccnn2C)c(C)c1
IC50 [1]: > 3000 nM
IC50 [2]: > 3000 nM
IC50 [3]: > 3000 nM
IC50 [4]: > 3000 nM
IC50 [5]: > 3000 nM
viability, T/C (second compound 0.1 µM, first compound 0.00949 µM): 88.3%
viability, T/C (second compound 0.1 µM, first compound 0.03 µM): 100%
viability, T/C (second compound 0.1 µM, first compound 0.0949 µM): 88.5%
viability, T/C (second compound 0.1 µM, first compound 0.3 µM): 91.7%
viability, T/C (second compound 0.1 µM, first compound 0.949 µM): 80.3%
viability, T/C (second compound 0.1 µM, first compound 3 µM): 84.3%
viability, T/C (second compound 0.316 µM, first compound 0.00949 µM): 83.3%
viability, T/C (second compound 0.316 µM, first compound 0.03 µM): 91.5%
viability, T/C (second compound 0.316 µM, first compound 0.0949 µM): 86.4%
viability, T/C (second compound 0.316 µM, first compound 0.3 µM): 85.3%
viability, T/C (second compound 0.316 µM, first compound 0.949 µM): 88.3%
viability, T/C (second compound 0.316 µM, first compound 3 µM): 86.1%
viability, T/C (second compound 1 µM, first compound 0.00949 µM): 80.7%
viability, T/C (second compound 1 µM, first compound 0.03 µM): 82.2%
viability, T/C (second compound 1 µM, first compound 0.0949 µM): 84%
viability, T/C (second compound 1 µM, first compound 0.3 µM): 78.3%
viability, T/C (second compound 1 µM, first compound 0.949 µM): 82.8%
viability, T/C (second compound 1 µM, first compound 3 µM): 96.4%
viability, T/C (second compound 3.16 µM, first compound 0.00949 µM): 75.8%
viability, T/C (second compound 3.16 µM, first compound 0.03 µM): 84.5%
viability, T/C (second compound 3.16 µM, first compound 0.0949 µM): 83.4%
viability, T/C (second compound 3.16 µM, first compound 0.3 µM): 85.5%
viability, T/C (second compound 3.16 µM, first compound 0.949 µM): 88.4%
viability, T/C (second compound 3.16 µM, first compound 3 µM): 79.2%
viability, T/C (second compound 10 µM, first compound 0.00949 µM): 80%
viability, T/C (second compound 10 µM, first compound 0.03 µM): 86.1%
viability, T/C (second compound 10 µM, first compound 0.0949 µM): 75.6%
viability, T/C (second compound 10 µM, first compound 0.3 µM): 75.2%
viability, T/C (second compound 10 µM, first compound 0.949 µM): 77.6%
viability, T/C (second compound 10 µM, first compound 3 µM): 81.4%

Structure (SMILES): CC1COCCN1c1cc(C2(S(C)(=N)=O)CC2)nc(-c2ccnc3[nH]ccc23)n1 (configuration not stated) + Cc1cncc(-c2nc(NCCc3c[nH]c4ccccc34)c3ncn(C(C)C)c3n2)c1
IC50 [1]: > 10000 nM
IC50 [2]: > 10000 nM
IC50 [3]: > 10000 nM
IC50 [4]: > 10000 nM
IC50 [5]: 1190 nM
viability, T/C (second compound 0.1 µM, first compound 0.0316 µM): 88.1%
viability, T/C (second compound 0.1 µM, first compound 0.1 µM): 90.5%
viability, T/C (second compound 0.1 µM, first compound 0.316 µM): 84.3%
viability, T/C (second compound 0.1 µM, first compound 1 µM): 84.8%
viability, T/C (second compound 0.1 µM, first compound 3.16 µM): 78.3%
viability, T/C (second compound 0.1 µM, first compound 10 µM): 58.2%
viability, T/C (second compound 0.316 µM, first compound 0.0316 µM): 92.4%
viability, T/C (second compound 0.316 µM, first compound 0.1 µM): 95.6%
viability, T/C (second compound 0.316 µM, first compound 0.316 µM): 92.3%
viability, T/C (second compound 0.316 µM, first compound 1 µM): 82.1%
viability, T/C (second compound 0.316 µM, first compound 3.16 µM): 69.3%
viability, T/C (second compound 0.316 µM, first compound 10 µM): 54.3%
viability, T/C (second compound 1 µM, first compound 0.0316 µM): 95.8%
viability, T/C (second compound 1 µM, first compound 0.1 µM): 100%
viability, T/C (second compound 1 µM, first compound 0.316 µM): 100%
viability, T/C (second compound 1 µM, first compound 1 µM): 94.9%
viability, T/C (second compound 1 µM, first compound 3.16 µM): 81.7%
viability, T/C (second compound 1 µM, first compound 10 µM): 62.9%
viability, T/C (second compound 3.16 µM, first compound 0.0316 µM): 103%
viability, T/C (second compound 3.16 µM, first compound 0.1 µM): 113%
viability, T/C (second compound 3.16 µM, first compound 0.316 µM): 100%
viability, T/C (second compound 3.16 µM, first compound 1 µM): 94.2%
viability, T/C (second compound 3.16 µM, first compound 3.16 µM): 85%
viability, T/C (second compound 3.16 µM, first compound 10 µM): 54.8%
viability, T/C (second compound 10 µM, first compound 0.0316 µM): 57%
viability, T/C (second compound 10 µM, first compound 0.1 µM): 50.1%
viability, T/C (second compound 10 µM, first compound 0.316 µM): 59.6%
viability, T/C (second compound 10 µM, first compound 1 µM): 50.6%
viability, T/C (second compound 10 µM, first compound 3.16 µM): 42.7%
viability, T/C (second compound 10 µM, first compound 10 µM): 29.8%

Structure (SMILES): O=C(C=Cc1cccc(S(=O)(=O)Nc2ccccc2)c1)NO
viability, T/C (compound 0.0316 µM): 107% and 95.8% and 72.5%
viability, T/C (compound 0.1 µM): 112% and 96.7% and 77.7%
viability, T/C (compound 0.316 µM): 92.8% and 76% and 74.6%
viability, T/C (compound 1 µM): 68.9% and 73.4% and 93.9%
viability, T/C (compound 3.16 µM): 40.8% (2×) and 35.7%
viability, T/C (compound 10 µM): 2.89% and 2.67% and 2.49%
IC50 (curve of compound): 2130 nM and 2250 nM and 2170 nM

More lines, main results first:

IC50 (compound alone, run of 05/31/2022): > 10000 nM
Structure (SMILES): CC(CO)NC(=O)c1cc(-c2ccc(Cl)cc2)nn(-c2cnn(C)c2)c1=O (configuration not stated)

IC50 (curve of compound): > 100 nM
Structure (SMILES): CC[C@@]1(O)C(=O)OCc2c1cc1n(c2=O)Cc2cc3c(CN(C)C)c(O)ccc3nc2-1
viability, T/C (compound 0.000316 µM): 92.8% and 94.7% and 101%
viability, T/C (compound 0.001 µM): 108% and 116% and 99.4%
viability, T/C (compound 0.00316 µM): 90.1% and 89.1% and 94.2%
viability, T/C (compound 0.01 µM): 88.6% and 87.3% and 75.8%
viability, T/C (compound 0.0316 µM): 71% and 95.2% and 80.3%
viability, T/C (compound 0.1 µM): 67.6% and 80.6% and 70.9%

Source: PubChem BioAssay AID1919004 (Molecular Pharmacology Branch, DTP, NCI, 2023)
